Measurements taken from ChEMBL document CHEMBL5038628, “Discovery of spiro amide SHR902275: A potent, selective, and efficacious RAF inhibitor targeting RAS mutant cancers” (Eur J Med Chem, 2022).
≈ marks a conversion by molar mass, not a printed value.

Assays:
[1] = target: RAF proto-oncogene serine/threonine-protein kinase (Homo sapiens, UniProt P04049); experiment: Inhibition of human recombinant cRAF measured after 60 mins by TR-FRET assay
NCI-H358 = experiment: Cytotoxicity against human NCI-H358 cells assessed as inhibition of growth measured after 72 hrs by CellTiter-Glo luciferase assay; format: functional
[2] = Solubility of the compound at pH 7.4; settings: buffer
[3] = Cmax in Sprague-Dawley rat plasma at 2 mg/kg, IG by LC-MS/MS analysis; format: ADME, organism-based; parameters: route […], dose 2 mg/kg; settings: po
[4] = Half life in Sprague-Dawley rat plasma at 1 mg/kg, iv by LC-MS/MS analysis; format: ADME, organism-based; settings: for half-life: Sprague-Dawley, plasma; for t1/2: in vivo, 1 mg/kg
[5] = Clearance in Sprague-Dawley rat plasma at 1 mg/kg, iv by LC-MS/MS analysis; format: ADME, organism-based
[6] = AUC (0 to t) in Sprague-Dawley rat plasma at 2 mg/kg, IG by LC-MS/MS analysis; format: ADME, organism-based; parameters: dose 2 mg/kg; settings: Sprague-Dawley, plasma, po
[7] = Oral bioavailability in Sprague-Dawley rat by LC-MS/MS analysis; format: ADME, organism-based; settings: Sprague-Dawley, in vivo
[8] = Metabolic stability in human liver microsomes assessed as half life; format: ADME, Microsome
[9] = AUC (0 to t) in Sprague-Dawley rat plasma at 1 mg/kg, iv by LC-MS/MS analysis; format: ADME, organism-based; parameters: dose 1 mg/kg
[10] = MRT (0 to infinity) in Sprague-Dawley rat plasma at 1 mg/kg, iv by LC-MS/MS analysis; format: ADME, organism-based; settings: in vivo
Calu-6 = experiment: Antitumor activity against human Calu-6 cells xenografted in nude mouse assessed as tumor growth inhibition at 30 mg/kg,IT QD for 12 days relative to control; format: functional; settings: Calu-6, 288 h, time 12 day, read-out: TGI

Sequence of RAF proto-oncogene serine/threonine-protein kinase (P04049 whole entry): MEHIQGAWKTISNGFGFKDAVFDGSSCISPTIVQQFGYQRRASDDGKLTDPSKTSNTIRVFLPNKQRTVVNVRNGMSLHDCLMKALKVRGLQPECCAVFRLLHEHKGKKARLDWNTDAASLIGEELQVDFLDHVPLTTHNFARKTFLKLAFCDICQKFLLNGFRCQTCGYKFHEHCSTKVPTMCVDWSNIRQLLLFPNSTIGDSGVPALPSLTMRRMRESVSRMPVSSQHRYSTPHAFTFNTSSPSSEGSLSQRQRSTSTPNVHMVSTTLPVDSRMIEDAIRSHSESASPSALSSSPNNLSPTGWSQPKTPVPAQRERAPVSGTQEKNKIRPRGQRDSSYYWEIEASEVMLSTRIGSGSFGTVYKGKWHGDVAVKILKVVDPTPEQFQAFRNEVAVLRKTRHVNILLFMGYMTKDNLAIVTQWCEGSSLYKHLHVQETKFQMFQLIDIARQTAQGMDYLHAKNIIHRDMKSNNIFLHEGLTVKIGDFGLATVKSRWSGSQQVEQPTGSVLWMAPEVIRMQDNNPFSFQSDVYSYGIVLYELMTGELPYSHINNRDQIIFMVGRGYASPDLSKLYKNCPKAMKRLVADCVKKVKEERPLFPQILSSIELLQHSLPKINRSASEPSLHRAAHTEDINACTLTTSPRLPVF

Row | SMILES | IC50 [1] [nM] | GI50 (NCI-H358) [µM] | solubility [2] [µM] | other results
1 | Cc1ccc(NC(=O)c2ccnc(C(F)(F)F)c2)cc1-c1ccc2c(c1)OC1(CCOCC1)CN(C)C2=O | 1.3 | 2.9 | 8.5 (≈ 4.47 µg/mL) | –
2 | Cc1ccc(NC(=O)c2ccnc(OC(F)F)c2)cc1-c1ccc2c(c1)OC1(CCOCC1)CC(=O)N2 | 4.1 | 0.9 | 0.16 (≈ 0.0815 µg/mL) | Cmax [3]: 107 ng/mL; half-life [4]: 90 min; clearance [5]: 16.7 mL/min/kg; AUC(0-t) [6]: 455 ng·h/mL; bioavailability [7]: 22%
3 | Cc1cc(F)c(NC(=O)N(C)c2ccnc(C(F)(F)F)c2)cc1-c1ccc2c(c1)OC1(CCOCC1)CC(=O)N2 | 4.7 | 9.4 | – | –
4 | Cc1ccc(NC(=O)c2cnnc(C(F)(F)F)c2)cc1-c1ccc2c(c1)OC1(CCOCC1)CC(=O)N2 | 3.2 | 2 | 0.44 (≈ 0.225 µg/mL) | Cmax [3]: 40 ng/mL; half-life [4]: 90 min; clearance [5]: 16.1 mL/min/kg; AUC(0-t) [6]: 176 ng·h/mL; bioavailability [7]: 9.2%
5 | Cc1ccc(NC(=O)c2ccnc(C(F)(F)F)c2)cc1-c1ccc2c(c1)OC1(CCOCC1)CN(CC(C)(C)O)C2=O | 34 | 6.2 | – | –
6 | Cc1ccc(NC(=O)c2cc(OC3CC3)cnn2)cc1-c1ccc2c(c1)OC1(CCOCC1)CC(=O)N2 | 3.4 | 1.9 | – | half-life [8]: 6.8 min
7 | Cc1cnc(NC(=O)c2ccnc(C(F)(F)F)c2)cc1-c1ccc2c(c1)OC1(CCOCC1)CC(=O)N2 | 1.8 | 3.8 | – | –
8 | Cc1ccc(NC(=O)c2cc(OCCO)nc(C(F)(F)F)c2)cc1-c1ccc2c(c1)OC1(CCOCC1)CC(=O)N2 | 26 | 4.3 | – | –
9 | O=C1CC2(CCOCC2)Oc2cc(-c3cc(NC(=O)c4ccnc(C(F)(F)F)c4)ccc3CO)ccc2N1 | 3.5 | 21 | – | –
10 | Cc1ccc(NC(=O)N2CCCC(C(F)(F)F)C2)cc1-c1ccc2c(c1)OC1(CCOCC1)CC(=O)N2 (configuration not stated) | 13 | 5.5 | – | –
11 | Cc1cc(F)c(NC(=O)Nc2ccnc(C(F)(F)F)c2)cc1-c1ccc2c(c1)OC1(CCOCC1)CC(=O)N2 | 6.7 | 0.2 | – | t1/2 [4]: 0.37 h; clearance [5]: 120 mL/min/kg; AUC(0-t) [9]: 154 ng·h/mL; MRT [10]: 0.19 h
12 | Cc1ccc(NC(=O)c2ccnc(C(F)(F)F)c2)cc1-c1ccc2c(c1)OC1(CCOCC1)CN(CCN(C)C)C2=O | 13 | 7.6 | – | –
13 | Cc1ccc(NC(=O)c2ccnc(C(F)(F)F)c2)cc1-c1ccc2c(c1)OC1(CCOCC1)CCO2 | 32 | 8.5 | – | –
14 | Cc1ccc(NC(=O)c2cc(OCCO)nc(OC(F)F)c2)cc1-c1ccc2c(c1)OC1(CCOCC1)CC(=O)N2 | 9.2 | 2 | 0.41 (≈ 0.234 µg/mL) | –
15 | Cc1ccc(NC(=O)C2CCNC(C(F)(F)F)C2)cc1-c1ccc2c(c1)OC1(CCOCC1)CC(=O)N2 (configuration not stated) | 3.3 | > 30 | – | –
16 | Cc1ccc(NC(=O)c2ccnc(C(F)(F)F)c2)cc1-c1ccc2c(c1)OC1(CCN2)CCOCC1 | 5.4 | 13 | – | –
17 | Cc1ccc(NC(=O)c2ccnc(C(F)(F)F)c2)cc1-c1ccc2c(c1)OC1(CCOCC1)CNC2=O | 3.6 | 2.9 | 10.4 (≈ 5.32 µg/mL) | Cmax [3]: 7.7 ng/mL; AUC(0-t) [6]: 41.3 ng·h/mL
18 | COc1nnc(C(=O)Nc2ccc(C)c(-c3ccc4c(c3)OC3(CCOCC3)CC(=O)N4)c2)cc1C(F)(F)F | 22 | 2.6 | 3.6 (≈ 1.95 µg/mL) | half-life [8]: 57 min
19 | Cc1ccc(NC(=O)c2ccnc(C(F)(F)F)c2)nc1-c1ccc2c(c1)OC1(CCOCC1)CC(=O)N2 | 2.2 | > 30 | – | –
20 | Cc1ccc(NC(=O)c2cc(C(F)(F)F)ncn2)cc1-c1ccc2c(c1)OC1(CCOCC1)CC(=O)N2 | 5.5 | 2.7 | 0.35 (≈ 0.179 µg/mL) | –
21 | Cc1cc(F)c(NC(=O)Cc2ccnc(C(F)(F)F)c2)cc1-c1ccc2c(c1)OC1(CCOCC1)CC(=O)N2 | 3.2 | 9.4 | – | –
22 | Cc1ccc(C(=O)Nc2ccnc(C(F)(F)F)c2)cc1-c1ccc2c(c1)OC1(CCOCC1)CC(=O)N2 | 21 | 8.6 | – | –

Row | SMILES | IC50 [1] [nM] | GI50 (NCI-H358) [µM] | solubility [2] [µM] | other results
23 | Cc1ccc(NC(=O)c2ccnc(C(F)(F)F)c2)cc1-c1ccc2c(c1)OC1(CCOCC1)CN(CCO)C2=O | 1.3 | 3.2 | 311 (≈ 173 µg/mL) | Cmax [3]: 5.9 ng/mL; clearance [5]: 40.4 mL/min/kg; AUC(0-t) [6]: 29 ng·h/mL; bioavailability [7]: 3.47%
24 | COc1ccc(NC(=O)c2ccnc(C(F)(F)F)c2)cc1-c1ccc2c(c1)OC1(CCOCC1)CC(=O)N2 | 3.6 | 5.9 | – | –
25 | Cc1ccc(NC(=O)c2nccc(C(F)(F)F)n2)cc1-c1ccc2c(c1)OC1(CCOCC1)CC(=O)N2 | 2 | 2.3 | 1.4 (≈ 0.717 µg/mL) | –
26 | Cc1ccc(NC(=O)c2cccc(C(F)(F)F)n2)cc1-c1ccc2c(c1)OC1(CCOCC1)CC(=O)N2 | 19.7 | 6.8 | – | –
27 | Cc1ccc(NC(=O)c2cc(C(F)F)cnn2)cc1-c1ccc2c(c1)OC1(CCOCC1)CC(=O)N2 | 0.8 | 3.9 | 7 (≈ 3.46 µg/mL) | –
28 | Cc1ccc(-c2nnc(-c3ccnc(C(F)(F)F)c3)[nH]2)cc1-c1ccc2c(c1)OC1(CCOCC1)CC(=O)N2 | 48 | 2.5 | – | t1/2 [4]: 3.79 h; clearance [5]: 17.1 mL/min/kg; AUC(0-t) [6]: 38.6 ng·h/mL; bioavailability [7]: 2.16%; AUC(0-t) [9]: 999 ng·h/mL; MRT [10]: 2.59 h
29 | Cc1ccc(NC(=O)c2cc(C(F)(F)F)ccn2)cc1-c1ccc2c(c1)OC1(CCOCC1)CC(=O)N2 | 11.3 | 2.9 | 1.4 (≈ 0.716 µg/mL) | –
30 | Cc1ccc(NS(=O)(=O)c2ccnc(C(F)(F)F)c2)cc1-c1ccc2c(c1)OC1(CCOCC1)CC(=O)N2 | 32 | > 30 | – | –
31 | Cc1ccc(NC(=O)c2ccnc(C3CC3)c2)cc1-c1ccc2c(c1)OC1(CCOCC1)CC(=O)N2 | 7.1 | 2.5 | 0.61 (≈ 0.295 µg/mL) | –
32 | Cc1ccc(NC(=O)c2ccnc(C(F)(F)F)c2)cc1-c1ccc2c(c1)OC1(CCOCC1)CNC2 | 4.3 | 15 | – | –
33 | Cc1ccc(NC(=O)c2ccc(C(F)(F)F)s2)cc1-c1ccc2c(c1)OC1(CCOCC1)CC(=O)N2 | 69 | 3.4 | – | –
34 | Cc1ncc(NC(=O)c2ccnc(C(F)(F)F)c2)cc1-c1ccc2c(c1)OC1(CCOCC1)CC(=O)N2 | 5 | 6.3 | – | –
35 | Cc1ccc(NC(=O)c2cc(C(F)(F)F)cnn2)cc1-c1ccc2c(c1)OC1(CCOCC1)CC(=O)N2CCO | 2.6 | 2.6 | – | half-life [8]: 11 min
36 | Cc1ccc(NC(=O)c2cc(C(F)(F)F)nn2C)cc1-c1ccc2c(c1)OC1(CCOCC1)CC(=O)N2 | 28 | 13 | – | –
37 | Cc1ccc(NC(=O)c2ccnc(C(F)(F)F)c2)cc1-c1ccc2c(c1)OC1(CCOCC1)CC(=O)N2CCO | 0.83 | 4.7 | – | –
38 | Cc1ccc(NC(=O)c2cncc(C(F)(F)F)n2)cc1-c1ccc2c(c1)OC1(CCOCC1)CC(=O)N2 | 3.3 | 5.2 | – | –
39 | Cc1ccc(NC(=O)c2cncc(C(F)(F)F)c2)cc1-c1ccc2c(c1)OC1(CCOCC1)CC(=O)N2 | 5.4 | 1.6 | 0.06 (≈ 0.0307 µg/mL) | –
40 | Cc1ccc(NC(=O)c2ccnc(C(F)(F)F)n2)cc1-c1ccc2c(c1)OC1(CCOCC1)CC(=O)N2 | 334 | 12 | – | –
41 | Cc1ccc(NC(=O)c2ccnc(C(F)(F)F)c2)cc1-c1ccc2c(c1)OC1(CCOCC1)CC(=O)N2C | 4.5 | 7.1 | – | –
42 | Cc1ccc(NC(=O)c2ccnc(C(F)(F)F)c2)cc1-c1cc(OCCO)nc(N2CCOCC2)c1 [NAPORAFENIB] | 8.6 | 3 | 26 (≈ 13.1 µg/mL) | inhibition in vivo at 30 mg/kg (Calu-6): 67%
43 | Cc1ccc(NC(=O)c2cc(C(F)(F)F)cnn2)cc1-c1ccc2c(c1)OC1(CCOCC1)CC(=O)N2C | 3.9 | 1.3 | 2.3 (≈ 1.21 µg/mL) | half-life [8]: 4.6 min
